Data: ChEMBL document CHEMBL3044596, “Stagonolides G-I and modiolide A, nonenolides produced by Stagonospora cirsii, a potential mycoherbicide for Cirsium arvense” (J Nat Prod, 2008)
≈ marks a conversion by molar mass, not a printed value. Calls of active or inactive are those of the source. The rule behind the calls is not given here.

How the values were obtained:
Cirsium arvense [1] = assay: Herbicidal activity against Cirsium arvense (Canada thistle) assessed as induction of leaf necrosis at 1 mg/mL measured after 2 days post compound treatment by leaf disk-puncture bioassay; format: functional, organism-based
Zea mays = assay: Phytotoxicity activity against Zea mays (maize) assessed as leaf necrotic lesion diameter at 1 mg/mL measured after 72 hr post compound treatment by leaf disk-puncture bioassay; format: organism-based; settings: in vivo
Cichorium intybus [2] = assay: Inhibition of root growth in Cichorium intybus (chicory) seedlings soaked in 1 mg/mL compound solutions for 1 hr relative to untreated control; format: functional
Aegopodium podagraria = assay: Phytotoxicity activity against Aegopodium podagraria (bishop's weed) assessed as leaf necrotic lesion diameter at 1 mg/mL measured after 72 hr post compound treatment by leaf disk-puncture bioassay; format: organism-based; settings: in vivo
Cirsium arvense [3] = assay: Herbicidal activity against Cirsium arvense (Canada thistle) assessed as leaf necrotic lesion diameter at 1 mg/mL measured after 72 hr post compound treatment by leaf disk-puncture bioassay; format: functional
Cichorium intybus [4] = assay: Phytotoxicity activity against Cichorium intybus (chicory) assessed as leaf necrotic lesion diameter at 1 mg/mL measured after 72 hr post compound treatment by leaf disk-puncture bioassay; format: organism-based; settings: in vivo
Radish = assay: Phytotoxicity activity against Raphanus sativus (radish) assessed as leaf necrotic lesion diameter at 1 mg/mL measured after 72 hr post compound treatment by leaf disk-puncture bioassay; format: organism-based; settings: in vivo
Trifolium pratense = assay: Phytotoxicity activity against Trifolium pratense (red clover) assessed as leaf necrotic lesion diameter at 1 mg/mL measured after 72 hr post compound treatment by leaf disk-puncture bioassay; format: organism-based; settings: in vivo
Cirsium arvense [5] = assay: Herbicidal activity against Cirsium arvense (Canada thistle) assessed as induction of leaf necrosis measured after 2 days post compound treatment by leaf disk-puncture bioassay; format: functional; settings: 48 h
Elymus repens = assay: Phytotoxicity activity against Elymus repens (couch grass) assessed as leaf necrotic lesion diameter at 1 mg/mL measured after 72 hr post compound treatment by leaf disk-puncture bioassay; format: organism-based; settings: in vivo
Solanum lycopersicum = assay: Phytotoxicity activity against Solanum lycopersicum (tomato) assessed as leaf necrotic lesion diameter at 1 mg/mL measured after 72 hr post compound treatment by leaf disk-puncture bioassay; format: organism-based; settings: in vivo

C[C@@H]1C[C@H](O)/C=C/[C@@H](O)/C=C\C(=O)O1
Activity (Cirsium arvense [1]): inactive

C[C@@H]1C[C@H](O)/C=C\[C@@H](O)/C=C\C(=O)O1
Activity (Cirsium arvense [1]): inactive

C[C@H]1OC(=O)CC[C@H](O)C/C=C\[C@H]1O
Activity (Cirsium arvense [1]): inactive

C[C@@H]1OC(=O)/C=C\[C@@H](O)/C=C/[C@@H]2O[C@H]12 [Stagonolide H]
Activity (Cirsium arvense [1]): Active
Activity (Zea mays): < 4 mm
growth inhibition (GI) (Cichorium intybus [2]): 85%
Activity (Aegopodium podagraria): < 4 mm
Activity (Cirsium arvense [3]): 7.5 mm
Activity (Cichorium intybus [4]): < 4 mm
Activity (Radish): < 4 mm
Activity (Trifolium pratense): < 4 mm
MIC (Cirsium arvense [5]): 150 µM (≈ 29.4 µg/mL)
Activity (Elymus repens): < 4 mm
Activity (Solanum lycopersicum): < 4 mm
